Measured values taken from ChEMBL document CHEMBL1146853, “Proton dissociation is important to understanding structure-activity relationships of gallic acid antioxidants” (Bioorg Med Chem Lett, 2006).

Tests used:
[1] = system: Radical scavenging activity; test: DPPH radical scavenging activity in liposome; assay type: functional
[2] = system: Radical scavenging activity; test: DPPH radical scavenging activity in ethanol solution; assay type: functional

Compound | IC50 ([1]; read-out: IC50) [µM] | IC50 ([2]; read-out: IC50) [µM] | IC50 [1] | IC50 [2]
COc1cc(C(=O)O)cc(OC)c1O [SYRINGIC ACID] | 7.4 | 7.3 | – | –
COC(=O)c1cc(O)c(O)c(O)c1 [GALLIC ACID METHYL ESTER] | 8.4 | 7.2 | – | –
COc1cc(C(=O)O)cc(O)c1OC | – | – | Not Active | Not Active
COc1cc(C(=O)O)cc(OC)c1OC [3,4,5-TRIMETHOXYBENZOIC ACID] | – | – | Not Active | Not Active
O=C(O)c1cc(O)c(O)c(O)c1 [GALLIC ACID] | 7.3 | 6 | – | –
